# Results reported in patent US9492471B2, “Methods of treating a disease or disorder associated with Bruton'S Tyrosine Kinase” (Celgene Avilomics Research, Inc., priority 2013, dated 2016).
# Where two headings read alike, the source gives them in different places.
# Tests used:
# Experiment in all cases: HotSpot kinase profiling
# Format in all cases: biochemical
# PHKg1 = target: T1, PHKg1 (Homo sapiens, UniProt Q16816)
# T1 construct: purchased Reaction Biology Corp
# In short: (§1)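 Radio-isotope P81 filtration format. Substrate + required cofactors in reaction buffer, kinase added, 2 h RT. Stop, wash with 0.1% phosphoric acid, detect. % inhibition vs DMSO; mean of duplicates where repeated.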
# ALK6/BMPR1B = target: T2, ALK6/BMPR1B (Homo sapiens, UniProt O00238)
# T2 construct: purchased Reaction Biology Corp
# In short: as §1
# FGFR2 = target: T3, FGFR2 (Homo sapiens, UniProt P21802)
# T3 construct: purchased Reaction Biology Corp
# In short: as §1
# PDK1/PDPK1 = target: T4, PDK1/PDPK1 (Homo sapiens, UniProt O15530)
# T4 construct: purchased Reaction Biology Corp
# T4 sequence (O15530 1-556): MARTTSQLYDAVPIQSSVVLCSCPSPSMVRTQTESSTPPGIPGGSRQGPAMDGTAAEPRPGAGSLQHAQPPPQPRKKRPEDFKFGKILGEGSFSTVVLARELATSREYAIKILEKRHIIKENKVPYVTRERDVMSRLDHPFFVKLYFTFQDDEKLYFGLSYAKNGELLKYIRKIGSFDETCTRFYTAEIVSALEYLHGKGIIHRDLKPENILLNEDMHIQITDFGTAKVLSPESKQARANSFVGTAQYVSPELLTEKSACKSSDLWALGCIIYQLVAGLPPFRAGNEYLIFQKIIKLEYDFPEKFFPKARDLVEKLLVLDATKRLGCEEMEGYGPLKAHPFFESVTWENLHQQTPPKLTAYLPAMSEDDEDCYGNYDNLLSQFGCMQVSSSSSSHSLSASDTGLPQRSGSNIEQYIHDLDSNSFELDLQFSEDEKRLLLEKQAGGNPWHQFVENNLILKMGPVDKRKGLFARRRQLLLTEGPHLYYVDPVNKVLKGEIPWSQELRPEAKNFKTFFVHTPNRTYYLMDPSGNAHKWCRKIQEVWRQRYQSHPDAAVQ
# In short: as §1
# STK39/STLK3 = target: T5, STK39/STLK3 (Homo sapiens, UniProt Q9UEW8)
# T5 construct: purchased Reaction Biology Corp
# In short: as §1
# NEK5 = target: T6, NEK5 (Homo sapiens, UniProt Q6P3R8)
# T6 construct: purchased Reaction Biology Corp
# T6 sequence (Q6P3R8 1-708): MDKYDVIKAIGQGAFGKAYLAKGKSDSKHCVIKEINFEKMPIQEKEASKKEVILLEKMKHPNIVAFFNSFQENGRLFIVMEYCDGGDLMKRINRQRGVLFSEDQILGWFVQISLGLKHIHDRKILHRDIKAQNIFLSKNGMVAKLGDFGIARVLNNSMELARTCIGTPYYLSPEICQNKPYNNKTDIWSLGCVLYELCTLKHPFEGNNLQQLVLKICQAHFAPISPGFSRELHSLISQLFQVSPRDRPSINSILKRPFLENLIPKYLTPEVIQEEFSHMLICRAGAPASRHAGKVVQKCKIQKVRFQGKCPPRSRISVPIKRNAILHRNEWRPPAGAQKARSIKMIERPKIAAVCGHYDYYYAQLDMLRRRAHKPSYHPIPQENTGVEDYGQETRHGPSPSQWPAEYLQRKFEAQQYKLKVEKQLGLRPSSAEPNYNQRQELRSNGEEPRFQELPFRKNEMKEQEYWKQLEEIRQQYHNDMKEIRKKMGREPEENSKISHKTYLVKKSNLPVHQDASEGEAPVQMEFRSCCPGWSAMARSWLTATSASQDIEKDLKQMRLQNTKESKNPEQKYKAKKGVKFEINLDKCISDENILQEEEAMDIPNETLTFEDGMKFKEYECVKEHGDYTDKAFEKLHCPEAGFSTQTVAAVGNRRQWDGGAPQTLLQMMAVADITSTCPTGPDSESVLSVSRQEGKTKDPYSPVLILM
# In short: as §1
# PAK5 = target: T7, PAK5 (Homo sapiens, UniProt Q9P286)
# T7 construct: purchased Reaction Biology Corp
# In short: as §1
# DYRK4 = target: T8, DYRK4 (Homo sapiens, UniProt Q9NR20)
# T8 construct: purchased Reaction Biology Corp
# T8 sequence (Q9NR20 1-520): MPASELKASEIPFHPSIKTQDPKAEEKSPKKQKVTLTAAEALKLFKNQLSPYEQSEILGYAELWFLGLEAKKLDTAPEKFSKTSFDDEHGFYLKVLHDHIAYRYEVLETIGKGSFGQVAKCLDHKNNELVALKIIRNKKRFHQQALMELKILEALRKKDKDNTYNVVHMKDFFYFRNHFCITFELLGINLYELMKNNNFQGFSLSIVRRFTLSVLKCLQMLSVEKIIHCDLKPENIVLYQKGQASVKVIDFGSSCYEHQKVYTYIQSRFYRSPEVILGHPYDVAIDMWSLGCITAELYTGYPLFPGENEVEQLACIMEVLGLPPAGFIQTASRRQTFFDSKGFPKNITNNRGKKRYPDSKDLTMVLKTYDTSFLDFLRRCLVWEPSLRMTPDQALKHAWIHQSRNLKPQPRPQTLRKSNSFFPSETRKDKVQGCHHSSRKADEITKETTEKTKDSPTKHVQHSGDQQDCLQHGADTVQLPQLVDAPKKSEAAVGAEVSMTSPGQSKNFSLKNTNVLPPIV
# In short: as §1
# [1] = read-out: % Enzyme Activity (relative to DMSO controls) Run 1
# [2] = read-out: % Enzyme Activity (relative to DMSO controls) Run 2
# T3 sequence (P21802 22-821): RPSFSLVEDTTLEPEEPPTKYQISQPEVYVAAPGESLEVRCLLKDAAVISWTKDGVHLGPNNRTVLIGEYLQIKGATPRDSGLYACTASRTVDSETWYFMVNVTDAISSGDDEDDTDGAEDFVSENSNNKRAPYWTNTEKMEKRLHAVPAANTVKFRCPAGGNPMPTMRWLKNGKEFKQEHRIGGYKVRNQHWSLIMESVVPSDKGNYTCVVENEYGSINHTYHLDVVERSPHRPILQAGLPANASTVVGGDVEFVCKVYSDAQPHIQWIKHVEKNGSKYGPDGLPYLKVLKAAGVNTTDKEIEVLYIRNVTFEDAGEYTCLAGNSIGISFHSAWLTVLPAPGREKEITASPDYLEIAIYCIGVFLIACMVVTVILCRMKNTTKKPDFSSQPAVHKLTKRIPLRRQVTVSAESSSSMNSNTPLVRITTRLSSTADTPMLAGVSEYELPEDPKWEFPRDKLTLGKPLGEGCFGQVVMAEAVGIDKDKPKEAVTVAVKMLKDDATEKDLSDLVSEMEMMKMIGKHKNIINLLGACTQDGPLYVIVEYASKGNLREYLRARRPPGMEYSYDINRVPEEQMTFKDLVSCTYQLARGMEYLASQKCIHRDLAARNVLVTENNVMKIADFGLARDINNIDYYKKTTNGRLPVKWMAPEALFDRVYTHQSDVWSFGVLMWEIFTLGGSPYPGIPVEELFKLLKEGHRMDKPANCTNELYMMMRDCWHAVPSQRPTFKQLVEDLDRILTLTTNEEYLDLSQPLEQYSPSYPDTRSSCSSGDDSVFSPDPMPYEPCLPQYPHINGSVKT
# T2 sequence (O00238 14-502): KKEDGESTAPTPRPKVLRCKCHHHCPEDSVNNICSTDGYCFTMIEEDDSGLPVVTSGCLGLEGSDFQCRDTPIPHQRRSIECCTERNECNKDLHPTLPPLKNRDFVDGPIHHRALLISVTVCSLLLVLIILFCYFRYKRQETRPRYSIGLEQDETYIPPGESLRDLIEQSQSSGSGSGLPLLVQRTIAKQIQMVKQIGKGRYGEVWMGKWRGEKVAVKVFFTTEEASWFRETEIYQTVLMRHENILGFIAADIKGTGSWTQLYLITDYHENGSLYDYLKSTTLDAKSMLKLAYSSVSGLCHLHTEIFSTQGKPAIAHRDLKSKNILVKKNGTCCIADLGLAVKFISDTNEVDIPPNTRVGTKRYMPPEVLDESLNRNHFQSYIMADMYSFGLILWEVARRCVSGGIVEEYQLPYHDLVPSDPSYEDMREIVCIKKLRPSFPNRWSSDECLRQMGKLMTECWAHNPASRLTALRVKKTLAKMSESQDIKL
# T1 sequence (Q16816 whole entry): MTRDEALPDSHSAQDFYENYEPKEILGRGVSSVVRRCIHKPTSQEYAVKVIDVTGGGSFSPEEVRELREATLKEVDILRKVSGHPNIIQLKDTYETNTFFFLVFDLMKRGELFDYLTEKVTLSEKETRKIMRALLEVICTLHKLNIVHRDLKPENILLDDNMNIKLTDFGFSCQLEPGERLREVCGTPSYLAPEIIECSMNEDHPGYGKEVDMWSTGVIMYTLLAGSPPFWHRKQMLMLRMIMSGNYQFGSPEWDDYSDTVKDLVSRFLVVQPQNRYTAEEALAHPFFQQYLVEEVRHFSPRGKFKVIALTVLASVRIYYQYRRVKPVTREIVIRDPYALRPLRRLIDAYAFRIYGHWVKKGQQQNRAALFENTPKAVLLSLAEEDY
# T7 sequence (Q9P286 whole entry): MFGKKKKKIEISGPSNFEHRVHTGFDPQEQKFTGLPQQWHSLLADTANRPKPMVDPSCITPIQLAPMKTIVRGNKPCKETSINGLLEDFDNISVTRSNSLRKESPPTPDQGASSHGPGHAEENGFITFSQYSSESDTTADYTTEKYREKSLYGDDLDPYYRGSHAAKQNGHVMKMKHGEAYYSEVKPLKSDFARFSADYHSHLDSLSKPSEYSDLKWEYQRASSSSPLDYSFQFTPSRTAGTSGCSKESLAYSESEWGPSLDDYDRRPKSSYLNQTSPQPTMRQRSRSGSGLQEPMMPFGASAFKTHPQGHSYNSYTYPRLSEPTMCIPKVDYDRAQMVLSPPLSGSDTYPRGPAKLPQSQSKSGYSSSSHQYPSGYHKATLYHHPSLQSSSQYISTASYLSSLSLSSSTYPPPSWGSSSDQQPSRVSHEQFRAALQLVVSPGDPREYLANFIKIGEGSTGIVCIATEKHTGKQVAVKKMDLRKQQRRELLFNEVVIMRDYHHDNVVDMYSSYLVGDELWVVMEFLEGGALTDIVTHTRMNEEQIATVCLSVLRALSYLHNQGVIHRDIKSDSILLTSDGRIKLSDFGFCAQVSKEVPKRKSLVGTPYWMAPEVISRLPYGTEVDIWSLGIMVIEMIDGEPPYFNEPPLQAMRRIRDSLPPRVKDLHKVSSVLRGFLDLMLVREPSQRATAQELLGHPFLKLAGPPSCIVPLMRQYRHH
smiles,measurement,setting,value
C=CC(=O)Nc1cccc(Nc2nc(Nc3ccc(OCCOC)c(F)c3)ncc2F)c1 [Compound 2],inhibition at 3 µM,PHKg1,14.5%
same,remaining activity at 3 µM,PHKg1; [1],85.8%
same,remaining activity at 3 µM,PHKg1; [2],85.2%
same,inhibition at 3 µM,ALK6/BMPR1B,-80.4%
same,remaining activity at 3 µM,ALK6/BMPR1B; [1],177%
same,remaining activity at 3 µM,ALK6/BMPR1B; [2],184%
same,inhibition at 3 µM,FGFR2,63.4%
same,remaining activity at 3 µM,FGFR2; [1],37.3%
same,remaining activity at 3 µM,FGFR2; [2],36%
same,inhibition at 3 µM,PDK1/PDPK1,-5.96%
same,remaining activity at 3 µM,PDK1/PDPK1; [1],107%
same,remaining activity at 3 µM,PDK1/PDPK1; [2],105%
same,inhibition at 3 µM,STK39/STLK3,7.74%
same,remaining activity at 3 µM,STK39/STLK3; [1],91.6%
same,remaining activity at 3 µM,STK39/STLK3; [2],92.9%
same,inhibition at 3 µM,NEK5,39.4%
same,remaining activity at 3 µM,NEK5; [1],60.2%
same,remaining activity at 3 µM,NEK5; [2],60.9%
same,inhibition at 3 µM,PAK5,-27.4%
same,remaining activity at 3 µM,PAK5; [1],123%
same,remaining activity at 3 µM,PAK5; [2],132%
same,inhibition at 3 µM,DYRK4,-5.35%
same,remaining activity at 3 µM,DYRK4; [1],105%
same,remaining activity at 3 µM,DYRK4; [2],106%
